Data as given in publication PMC3602187, “From Design to Screening: A New Antimicrobial Peptide Discovery Pipeline” (PLoS ONE, 2013).
In brackets after ≈: the same amount, converted by molar mass. Where a SMILES comes first, the peptide text is derived from it.

test system: Listeria innocua 33090; assay: MIC determination / agar spot assay of synthetic peptides; assay type: cell-based; conditions: synthetic peptide; 5 µl of two-fold serial dilutions spotted on TSB soft agar (1.2%) with 5×10^5 cfu/ml; 1 h room temperature, then 18 h at 37°C; lowest concentration with visible inhibition zone; triplicate
Method: Synthetic samples of wild-type Pln-423, two variants Pln-S23E and Pln-H28R/H34E from this study (Pln-4 and Pln-7 on Fig. 2), and another high-activity variant Pln-S27D/K36N (discovered during a pilot study, data not shown) were tested on agar plates at varying concentrations.
MICs were determined as previously described, [35]. Synthetic peptides were obtained from Peptide 2.0, Inc. (Chantilly, VA) and dissolved in 0.1% acetic acid/water solution at the final concentration of 2.5 mg/ml. Listeria innocua 33090 was grown in TSB until the turbidity of the culture match that of McFarland standard 0.5 (∼OD600 = 0.11) and diluted to final concentration of 5×10^5 cfu/ml in 20 ml TSB soft agar (1.2%) per plate. Two-fold serial dilutions (starting at 128 µg/ml) for each peptide was carried out in ultra-pure deionized water and 5 µl aliquots of each dilution were spotted on TSB plates. After the plates were incubated for 1 h at room temperature, they were placed at 37°C for overnight incubation. This experiment was performed in triplicate and the MIC was calculated as the lowest peptide concentration that formed a visible growth inhibition zone.

Row | Compound | MIC
1 | CC(C)C[C@H](NC(=O)[C@H](Cc1c[nH]cn1)NC(=O)[C@H](CO)NC(=O)[C@@H](NC(=O)[C@H](CO)NC(=O)[C@H](CS)NC(=O)[C@H](CCC(=O)O)NC(=O)[C@H](Cc1ccccc1)NC(=O)[C@H](C)NC(=O)[C@H](CCC(N)=O)NC(=O)CNC(=O)[C@H](Cc1c[nH]c2ccccc12)NC(=O)[C@H](CC(N)=O)NC(=O)[C@@H](NC(=O)[C@H](CO)NC(=O)[C@H](CS)NC(=O)[C@H](CO)NC(=O)[C@H](Cc1c[nH]cn1)NC(=O)[C@H](CCCCN)NC(=O)CNC(=O)[C@H](CS)NC(=O)[C@@H](NC(=O)[C@@H](NC(=O)CNC(=O)[C@H](CC(N)=O)NC(=O)CNC(=O)[C@H](Cc1ccc(O)cc1)NC(=O)[C@H](Cc1ccc(O)cc1)NC(=O)[C@@H](N)CCCCN)C(C)C)[C@@H](C)O)C(C)C)C(C)C)C(=O)N[C@@H](C)C(=O)N[C@@H](CC(N)=O)C(=O)N[C@@H](Cc1ccccc1)C(=O)NCC(=O)N[C@@H](Cc1c[nH]cn1)C(=O)NCC(=O)N[C@@H](CCCCN)C(=O)N[C@@H](CS)C(=O)O [PLN-S23E] (H-KYYGNGVTCGKHSCSVNWGQAFECSVSHLANFGHGKC-OH; N-terminus and C-terminus assumed) | 1 µM (≈ 3.98 µg/mL)

same assay, conditions: synthetic peptides

Row | Compound | MIC fold lower than wild-type Pln-423 | MIC fold higher compared to Pln-WT
2 | CC(C)C[C@H](NC(=O)[C@H](CCCNC(=N)N)NC(=O)[C@H](CO)NC(=O)[C@@H](NC(=O)[C@H](CO)NC(=O)[C@H](CS)NC(=O)[C@H](CO)NC(=O)[C@H](Cc1ccccc1)NC(=O)[C@H](C)NC(=O)[C@H](CCC(N)=O)NC(=O)CNC(=O)[C@H](Cc1c[nH]c2ccccc12)NC(=O)[C@H](CC(N)=O)NC(=O)[C@@H](NC(=O)[C@H](CO)NC(=O)[C@H](CS)NC(=O)[C@H](CO)NC(=O)[C@H](Cc1c[nH]cn1)NC(=O)[C@H](CCCCN)NC(=O)CNC(=O)[C@H](CS)NC(=O)[C@@H](NC(=O)[C@@H](NC(=O)CNC(=O)[C@H](CC(N)=O)NC(=O)CNC(=O)[C@H](Cc1ccc(O)cc1)NC(=O)[C@H](Cc1ccc(O)cc1)NC(=O)[C@@H](N)CCCCN)C(C)C)[C@@H](C)O)C(C)C)C(C)C)C(=O)N[C@@H](C)C(=O)N[C@@H](CC(N)=O)C(=O)N[C@@H](Cc1ccccc1)C(=O)NCC(=O)N[C@@H](CCC(=O)O)C(=O)NCC(=O)N[C@@H](CCCCN)C(=O)N[C@@H](CS)C(=O)O [PLN-H28R/H34E] (H-KYYGNGVTCGKHSCSVNWGQAFSCSVSRLANFGEGKC-OH; N-terminus and C-terminus assumed) | 2 fold | 
3 | CC(C)C[C@H](NC(=O)[C@H](Cc1c[nH]cn1)NC(=O)[C@H](CO)NC(=O)[C@@H](NC(=O)[C@H](CO)NC(=O)[C@H](CS)NC(=O)[C@H](CCC(=O)O)NC(=O)[C@H](Cc1ccccc1)NC(=O)[C@H](C)NC(=O)[C@H](CCC(N)=O)NC(=O)CNC(=O)[C@H](Cc1c[nH]c2ccccc12)NC(=O)[C@H](CC(N)=O)NC(=O)[C@@H](NC(=O)[C@H](CO)NC(=O)[C@H](CS)NC(=O)[C@H](CO)NC(=O)[C@H](Cc1c[nH]cn1)NC(=O)[C@H](CCCCN)NC(=O)CNC(=O)[C@H](CS)NC(=O)[C@@H](NC(=O)[C@@H](NC(=O)CNC(=O)[C@H](CC(N)=O)NC(=O)CNC(=O)[C@H](Cc1ccc(O)cc1)NC(=O)[C@H](Cc1ccc(O)cc1)NC(=O)[C@@H](N)CCCCN)C(C)C)[C@@H](C)O)C(C)C)C(C)C)C(=O)N[C@@H](C)C(=O)N[C@@H](CC(N)=O)C(=O)N[C@@H](Cc1ccccc1)C(=O)NCC(=O)N[C@@H](Cc1c[nH]cn1)C(=O)NCC(=O)N[C@@H](CCCCN)C(=O)N[C@@H](CS)C(=O)O [PLN-S23E] (H-KYYGNGVTCGKHSCSVNWGQAFECSVSHLANFGHGKC-OH; N-terminus and C-terminus assumed) |  | 13 fold
4 | CC(C)C[C@H](NC(=O)[C@H](Cc1c[nH]cn1)NC(=O)[C@H](CC(=O)O)NC(=O)[C@@H](NC(=O)[C@H](CO)NC(=O)[C@H](CS)NC(=O)[C@H](CO)NC(=O)[C@H](Cc1ccccc1)NC(=O)[C@H](C)NC(=O)[C@H](CCC(N)=O)NC(=O)CNC(=O)[C@H](Cc1c[nH]c2ccccc12)NC(=O)[C@H](CC(N)=O)NC(=O)[C@@H](NC(=O)[C@H](CO)NC(=O)[C@H](CS)NC(=O)[C@H](CO)NC(=O)[C@H](Cc1c[nH]cn1)NC(=O)[C@H](CCCCN)NC(=O)CNC(=O)[C@H](CS)NC(=O)[C@@H](NC(=O)[C@@H](NC(=O)CNC(=O)[C@H](CC(N)=O)NC(=O)CNC(=O)[C@H](Cc1ccc(O)cc1)NC(=O)[C@H](Cc1ccc(O)cc1)NC(=O)[C@@H](N)CCCCN)C(C)C)[C@@H](C)O)C(C)C)C(C)C)C(=O)N[C@@H](C)C(=O)N[C@@H](CC(N)=O)C(=O)N[C@@H](Cc1ccccc1)C(=O)NCC(=O)N[C@@H](Cc1c[nH]cn1)C(=O)NCC(=O)N[C@@H](CC(N)=O)C(=O)N[C@@H](CS)C(=O)O [PLN-S27D/K36N] (H-KYYGNGVTCGKHSCSVNWGQAFSCSVDHLANFGHGNC-OH; N-terminus and C-terminus assumed) | 2 fold | 

test system: Listeria innocua 33090; assay: colony overlay assay of peptide-secreting E. coli clones (library screening and re-test); assay type: cell-based; set-up: key: higher activity group (H); equal activity group (E); lower activity group (L); conditions: library screening; selected colonies pooled by zone size; peptides identified by 454 sequencing, full-length sequences with minimum 20 reads
In short: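 Pln-423 mutant library expressed periplasmically in leaky E. coli JE5505 (pFLAG-CTS); colonies grown 24 h at 37°C, then overlaid with TSB soft agar containing 1 mM IPTG and L. innocua ATCC 33090 (OD600 = 0.03) and incubated overnight at 30°C. Activity scored by inhibition-zone size versus wild-type Pln-423; hits re-tested after 4 h regrowth.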

Row | Compound | activity group by size of inhibition zone compared to wild-type Pln-423
5 | CC(C)C[C@H](NC(=O)[C@H](Cc1c[nH]cn1)NC(=O)[C@H](CO)NC(=O)[C@@H](NC(=O)[C@H](CO)NC(=O)[C@H](CS)NC(=O)[C@H](CCC(=O)O)NC(=O)[C@H](Cc1ccccc1)NC(=O)[C@H](C)NC(=O)[C@H](CCC(N)=O)NC(=O)CNC(=O)[C@H](Cc1c[nH]c2ccccc12)NC(=O)[C@H](CC(N)=O)NC(=O)[C@@H](NC(=O)[C@H](CO)NC(=O)[C@H](CS)NC(=O)[C@H](CO)NC(=O)[C@H](Cc1c[nH]cn1)NC(=O)[C@H](CCCCN)NC(=O)CNC(=O)[C@H](CS)NC(=O)[C@@H](NC(=O)[C@@H](NC(=O)CNC(=O)[C@H](CC(N)=O)NC(=O)CNC(=O)[C@H](Cc1ccc(O)cc1)NC(=O)[C@H](Cc1ccc(O)cc1)NC(=O)[C@@H](N)CCCCN)C(C)C)[C@@H](C)O)C(C)C)C(C)C)C(=O)N[C@@H](C)C(=O)N[C@@H](CC(N)=O)C(=O)N[C@@H](Cc1ccccc1)C(=O)NCC(=O)N[C@@H](Cc1c[nH]cn1)C(=O)NCC(=O)N[C@@H](CCCCN)C(=O)N[C@@H](CS)C(=O)O [PLN-S23E] (H-KYYGNGVTCGKHSCSVNWGQAFECSVSHLANFGHGKC-OH; N-terminus and C-terminus assumed) | H and L
6 | KYYGNGVTCGKHSCSVNWGQAFYCSVSHLANFGHGKC* [GROUP L-UM-29] | L
7 | KYYGNGVTCGKHSCSVNWGQAGSCSVSRLANFGHGKC* [Pep-2_6539] | H
8 | KYYGNGVTCGKHSCSVNWGQAGSCVVSHLANFGHGKC* [Pep-2_4919] | L
9 | KYYGNGVTCGKHSCSVNWGQAIVCSVSHLANFGHGKC* [Pep-2_3622] | L
10 | KYYGNGVTCGKHSCSVNWGQALSCAVSHLANFGHGKC* [Pep-2_5026] | L
11 | KYYGNGVTCGKHSCSVNWGQALSCSVTHLANFGHGKC* [GROUP L-UM-8] | L
12 | KYYGNGVTCGKHSCSVNWGQAMSCSVSRLANFGHGKC* [Pep-2_6538] | E
13 | KYYGNGVTCGKHSCSVNWGQAVSCSVHHLANFGHGKC* [GROUP E-UM-6] | E
14 | KYYGNGVTCGKHSCSVNWGQAVSCSVSHLANFGHGKC* [Pep-1_28] | E
15 | KYYGNGVTCGKHSCSVNWGQAYSCSVSHLANFGHGKC* [GROUP L-UM-21] | L
16 | KYYGNGVTCGKHSCSVNWGQGFSCAVSHLANFGHGKC* [Pep-2_2447] | L
17 | KYYGNGVTCGKHSCSVNWGQGFSCSVNHLANFGHGKC* [Pep-2_2457] | L
18 | KYYGNGVTCGKHSCSVNWGQGFSCSVSHLANFGHGKC* [Pep-1_23] | L
19 | KYYGNGVTCGKHSCSVNWGQSFSCSFSHLANFGHGKC* [Pep-2_5559] | L
20 | KYYGNGVTCGKHSCSVNWGQSFSCSVSHLANFGHGKC* [GROUP E-UM-5] | E
21 | KYYGNGVTCGKHSCSVNWGQVFSCSVSHLANFGHGHC* [Pep-2_11716] | L

Row | Compound | activity group by size of inhibition zone compared to wild-type Pln-423
22 | KYYGNGVTCGKHSCSVNWGQVFSCSVSHLANFGHGKC* [Pep-1_22] | L
23 | KYYGNGVTCGKHSCSVNWGQWFSCSVSHLANFGMGKC* [Pep-2_10746] | L
24 | KYYGNGVTCGKHSCSVNWGRAFSCSVAHLANFGHGKC* [Pep-2_6307] | L
25 | KYYGNGVTCGKHSCSVNWGRAFSCSVSRLANFGHGKC* [Pep-2_6523] | L
26 | KYYGNGVTCGKHSCSVNWGSAFSCSVSHLANFGEGSC* [GROUP L-UM-24] | L
27 | KYYGNGVTCGKHSCSVNWGTAFSCSISHLANFGHGKC* [Pep-2_1588] | E
28 | KYYGNGVTCGKHSCSVNWGTAFSCSVSYLANFGHGKC* [GROUP L-UM-14] | L
29 | KYYGNGVTCGKHSCSVNWGVAFSCSVSHLANFGHGWC* [Pep-2_1758] | L
30 | KYYGNGVTCGKHSCSVNWGVAFSCSVSHLANFGHGYC* [Pep-2_1755] | L
31 | KYYGNGVTCGKHSCSVNWGWAFSCSVSHLANFGHGKC* [Pep-1_18] | L
32 | KYYGNGVTCGKHSCSVNWNQAFYCSVSHLANFGHGKC* [Pep-2_921] | L
33 | KYYGNGVTCGKHSCSVNYGQAFACSVSHLANFGHGKC* [Pep-2_257] | L
34 | KYYGNGVTCGKHSCSVNYGQAFSCSVSHLANFGHGAC* [Pep-2_335] | E
35 | KYYGNGVTCGKHSCSVNYGQAFSCSVWHLANFGHGKC* [Pep-2_282] | E
36 | KYYGNGVTCGKHSCSVNYGQLFSCSVSHLANFGHGKC* [GROUP L-UM-22] | L
37 | KYYGNGVTCGNYSCSVNWGQAFSCSVVHLAEFGHGKC* [GROUP L-UM-10] | L
